SMILES strings stand for the structures.

This series can be described thus: Solubility (complete dissolution) of erlotinib hydrochloride in alcohol solvents at elevated temperature. The series is classed as physicochemical. The source says: In a first step of the distillation process, crystalline erlotinib hydrochloride is preferably dissolved in an […] solvent; more preferably dissolved in a straight or branched chain C1-C4 alcohol solvent, and most preferably dissolved in methanol or ethanol to form a solution. Erlotinib hydrochloride has the highest solubility in methanol or ethanol, allowing the complete dissolution of erlotinib hydrochloride at elevated temperature.
In particular, erlotinib hydrochloride is soluble in methanol at or over 50° C., allowing the complete dissolution of erlotinib hydrochloride in methanol at 50° C. or above with a concentration of 10 mg per milliliter (ml). The use of a relatively concentrated solution, e.g. about 10 mg per ml is therefore preferred for methanol.
In particular, erlotinib hydrochloride is soluble in ethanol at or over 70° C., allowing the complete dissolution of erlotinib hydrochloride in ethanol at […] with a concentration of 10 mg per ml. The use of a relatively concentrated solution, e.g. about 10 mg per ml is therefore preferred for ethanol.
In particular, erlotinib hydrochloride is soluble in methanol, ethanol or a mixture of ethanol and water solvents at 45° C.-55° C., allowing the complete dissolution of erlotinib hydrochloride in methanol or ethanol at this elevated temperature with a concentration of about 10 mg per ml. The use of a relatively concentrated solution, e.g. about 10 mg per ml or over is therefore preferred for spraying drying process.

On to `C#Cc1cccc(Nc2ncnc3cc(OCCOC)c(OCCOC)cc23)c1.Cl` [erlotinib hydrochloride, [6,7-bis(2-methoxy-ethoxy)-quinazolin-4-yl]-(3-ethynyl-phenyl) amine hydrochloride], for which the “concentration at complete dissolution in ethanol” value (ethanol, soluble at or over 70° C. (sentence also says ambient temperature)) is 10 mg per ml. The “concentration at complete dissolution in methanol” value (methanol, at 50° C. or above) is 10 mg per milliliter (ml). Besides, the “concentration at complete dissolution in methanol, ethanol or a mixture of ethanol and water” value (methanol, ethanol or ethanol/water mixture, 45° C.-55° C.) is on record as “about 10 mg per ml”.

(Values after US7625911B2, “Amorphous form of erlotinib hydrochloride and its solid amorphous dispersion” (Mai De Ltd., priority 2005, dated 2009).)
